Measurements as given in patent US11001564B2, “Substituted chromane-8-carboxamide compounds and analogues thereof, and methods using same” (priority 2016, dated 2021).
Counter-ions that a name gives are not always drawn. Like-named read-outs stand apart in the source and are kept apart here.

System: HBV rcDNA in HepDE19 cells
Experiment: HepDE19 assay with bDNA quantitation of HBV rcDNA
Format: cell-based, hepatitis B virus (HBV)
Outline: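 HepG2-derived HepDE19 cells, switched to Tet-free medium, were exposed 7 days at 37 °C to compound (8-point ½-log series from 25 μM, 0.5% DMSO). HBV rcDNA measured by bDNA assay with HBV-specific probes; EC50/EC90 by 4-parameter fit. CC50 from CellTiter-Glo ATP on replicate plates after 4 days.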

[1] = Hepatitis B virus, HepDE19, 168 h, HepDE19 cells, 7 day incubation, rcDNA by Quantigene 2.0 bDNA assay, read-out: DE-19 bDNA EC50
[2] = Hepatitis B virus, HepDE19, 168 h, read-out: DE-19 bDNA EC50, HepDE19 cells, 7 day incubation, rcDNA by Quantigene 2.0 bDNA assay
[3] = HepDE19 cells, 7 day incubation, rcDNA by Quantigene 2.0 bDNA assay, read-out: DE-19 bDNA EC50
[4] = read-out: DE-19 bDNA EC50, HepDE19 cells, 7 day incubation, rcDNA by Quantigene 2.0 bDNA assay

SMILES	EC50 [1] [µM]	also measured
Cc1cccc(COC(=O)N[C@H]2CCOc3c(C(=O)Nc4ccc(F)c(F)c4)cccc32)n1 [Compound 53, (6-Methylpyridin-2-yl)methyl (S)-(8-((3,4-difluorophenyl)carbamoyl)chroman-4-yl)carbamate]	4.4	–
CNC(=O)N[C@H]1CCOc2c1ccc(F)c2C(=O)Nc1ccc(F)c(F)c1 [Compound 48, (S)-N-(3,4-difluorophenyl)-7-fluoro-4-(3-methylureido) chromane-8-carboxamide]	6.7	–
COC(=O)N[C@H]1CCOc2c(C(=O)Nc3ccc(F)c(C)c3)ccc(F)c21 [Compound 117, Methyl (5-fluoro-8-((4-fluoro-3-methylphenyl)carbamoyl)chroman-4-yl)carbamate]	–	EC50 [2]: 0.22 µM
O=C(Nc1ccc(F)c(F)c1)c1cccc2c1OCCC2c1ccccn1 (stereo not shown) [Compound 68, N-(3,4-difluorophenyl)-4-(pyridin-2-yl)chromane-8-carboxamide]	3.4	–
CNC(=O)N[C@H]1CCOc2c(C(=O)Nc3ccc(F)c(Cl)c3)ccc(F)c21 [Compound 104, (S)—N-(3-Chloro-4-fluorophenyl)-5-fluoro-4-(3-methylureido)chromane-8-carboxamide]	–	EC50 [2]: 0.4 µM
O=C(N[C@H]1CCOc2c(C(=O)Nc3ccc(F)c(F)c3)ccc(Cl)c21)OCc1ccccn1 [Compound 134, Pyridin-2-ylmethyl (S)-(5-chloro-8-((3,4-difluorophenyl)carbamoyl)chroman-4-yl)carbamate]	1.3	–
CNC(=O)N[C@H]1CCOc2c1ccc(F)c2C(=O)Nc1ccc(F)c(Cl)c1 [Compound 75, (S)—N-(3-Chloro-4-fluorophenyl)-7-fluoro-4-(3-methylureido)chromane-8-carboxamide]	–	EC50 [2]: 3.2 µM
O=C(Nc1ccc(F)c(F)c1)c1ccc(Cl)c2c1OCCC2=O [Compound 78, 5-chloro-N-(3,4-difluorophenyl)-4-oxochromane-8-carboxamide]	7.3	–
COC(=O)N[C@H]1CCSc2c(C(=O)Nc3ccc(F)c(F)c3)ccc(F)c21 [Compound 171, Methyl (S)-(8-((3,4-difluorophenyl)carbamoyl)-5-fluorothiochroman-4-yl)carbamate]	4.1	–
CNC(=O)CC1CCOc2c(C(=O)Nc3ccc(F)c(F)c3)cccc21 (single isomer, unassigned) [Compound 132, N-(3,4-difluorophenyl)-4-(2-(methylamino)-2-oxoethyl) chromane-8-carboxamide]	–	EC50 [3]: 21 µM
CNC(=O)N[C@H]1CCOc2c(C(=O)Nc3ccc(F)c(F)c3)cccc21 [Compound 13, (S)—N-(3,4-difluorophenyl)-4-(3-methylureido) chromane-8-carboxamide]	–	EC50 [2]: 2.3 µM
CC(=O)N1CCC(COC(=O)N[C@H]2CCOc3c(C(=O)Nc4ccc(F)c(F)c4)cccc32)C1 (single isomer, unassigned) [Compound 144]	–	EC50 [2]: 5.4 µM
COC(=O)N[C@H]1CCOc2c(C(=O)NCc3cccc(F)c3)cccc21 [Compound 36, methyl (S)-(8-((3-fluorobenzyl)carbamoyl)chroman-4-yl)carbamate]	22	–
Cc1cc(NC(=O)c2ccc(F)c3c2OCC[C@@H]3NC(=O)CCc2ccccn2)ccc1F [Compound 151, (S)-5-Fluoro-N-(4-fluoro-3-methylphenyl)-4-(3-(pyridin-2-yl)propanamido)chromane-8-carboxamide]	0.56	–
O=C1CC[C@@H](COC(=O)N[C@H]2CCOc3c(C(=O)Nc4ccc(F)c(Cl)c4)ccc(F)c32)N1 [Compound 156, ((S)-5-Oxopyrrolidin-2-yl)methyl ((S)-8-((3-chloro-4-fluorophenyl)carbamoyl)-5-fluorochroman-4-yl)carbamate]	0.74	–
COC(=O)N[C@@H]1CCOc2c(C(=O)Nc3ccc(F)c(F)c3)cccc21 [Compound 11, methyl (R)-(8-((3,4-difluorophenyl)carbamoyl)chroman-4-yl)carbamate]	–	EC50 [2]: 21 µM

SMILES	EC50 [1] [µM]	also measured
O=C(Nc1ccc(F)c(F)c1)c1cccc2c1OCC[C@@H]2Nc1ccncn1 [Compound 67, (S)—N-(3,4-Difluorophenyl)-4-(pyrimidin-4-ylamino)chromane-8-carboxamide]	3.6	–
O=C(N[C@H]1CCOc2c(C(=O)Nc3ccc(F)c(F)c3)cccc21)OCC1CCCNC1 (single isomer, unassigned) [Compound 94]	–	EC50 [3]: 22 µM
COCCCOC(=O)N[C@H]1CCOc2c(C(=O)Nc3ccc(F)c(F)c3)cccc21 [Compound 19, 3-Methoxypropyl (8-((3,4-difluorophenyl)carbamoyl)chroman-4-yl) carbamate]	6	–
O=C(N[C@@H]1CCSc2c(C(=O)Nc3ccc(F)c(Cl)c3)ccc(F)c21)OCc1ccccn1 [Compound 173]	8.7	–
CCC(=O)N[C@H]1CCOc2c(C(=O)Nc3ccc(F)c(F)c3)cccc21 [Compound 10, N-(3,4-Difluorophenyl)-4-propionamidochromane-8-carboxamide]	5.8	–
Cn1ccc(COC(=O)N[C@H]2CCOc3c(C(=O)Nc4ccc(F)c(F)c4)cccc32)n1 [Compound 72, (1-Methyl-1H-pyrazol-3-yl)methyl (S)-(8-((3,4-difluorophenyl)carbamoyl)chroman-4-yl)carbamate]	2	–
NC(=O)NC1CCOc2c(C(=O)Nc3ccc(F)c(F)c3)cccc21 (stereo not shown) [Compound 34, N-(3,4-Difluorophenyl)-4-ureidochromane-8-carboxamide]	4.7	–
COC(=O)N[C@@H]1CCOc2c(C(=O)Nc3ccc(F)c(Cl)c3)ccc(F)c21 [Compound 92, (R)-Methyl (8-((3-chloro-4-fluorophenyl)carbamoyl)-5-fluorochroman-4-yl) carbamate]	–	EC50 [2]: 4.6 µM
Cc1cccc(COC(=O)N[C@H]2CCOc3c(C(=O)Nc4ccc(F)c(Cl)c4)cccc32)n1 [Compound 52, (6-Methylpyridin-2-yl)methyl (S)-(8-((3-chloro-4-fluorophenyl)carbamoyl)chroman-4-yl)carbamate]	1.7	–
COC(=O)NC1CCN(C)c2c(C(=O)Nc3ccc(F)c(Cl)c3)cccc21 (single isomer, unassigned) [Compound 179, Methyl (8-((3-chloro-4-fluorophenyl)carbamoyl)-1-methyl-1,2,3,4-tetrahydroquinolin-4-yl)carbamate]	–	EC50 [4]: 0.94 µM
O=C(N[C@H]1CCOc2c(C(=O)Nc3ccc(F)c(F)c3)cccc21)OC1CCOC1 (single isomer, unassigned) [Compound 25, Tetrahydrofuran-3-yl-(8-((3,4-difluorophenyl)carbamoyl)chroman-4-yl)carbamate]	–	EC50 [4]: 23 µM
Cc1cnc(N[C@H]2CCOc3c(C(=O)Nc4ccc(F)c(F)c4)cccc32)nc1 [Compound 58, (S)—N-(3,4-Difluorophenyl)-4-((5-methylpyrimidin-2-yl)amino)chromane-8-carboxamide]	9.7	–
O=C(N[C@H]1CCOc2c(C(=O)Nc3ccc(F)c(F)c3)cccc21)OCc1ccc(Cl)cn1 [Compound 88, (5-Chloropyridin-2-yl)methyl (S)-(8-((3,4-difluorophenyl)carbamoyl)chroman-4-yl)carbamate hydrochloride]	–	EC50 [2]: 13 µM
Cn1nccc1COC(=O)N[C@H]1CCOc2c(C(=O)Nc3ccc(F)c(F)c3)cccc21 [Compound 100, (1-Methyl-1H-pyrazol-5-yl)methyl (S)-(8-((3,4-difluorophenyl)carbamoyl)chroman-4-yl)carbamate]	2.6	–
O=C(N[C@H]1CCSc2c(C(=O)Nc3ccc(F)c(Cl)c3)ccc(F)c21)OCc1ccccn1 [Compound 172]	2.9	–
